“Also recorded” adds a separate entry of the source. Like-named read-outs stand apart in the source and are kept apart here.
Tests used:
TDP1 [1] = biological target: T1, TDP1 (Homo sapiens, UniProt Q9NUW8); settings: Figure 2, known inhibitor; cited from earlier work
T1 construct: inferred from the pET 16B vector and purification on Ni-chelating resin; made in house

TDP1 [2] = biological target: T1, TDP1; experiment: TDP1 assay: recombinant TDP1 with fluorescent biosensor (FAM/BHQ1), cell-free; assay type: biochemical; settings: recombinant TDP1 1.5 nM, biosensor 50 nM, 26 °C
Experimental: The primary screening of the inhibitory activities against TDP1 was performed using an in vitro cell-free system involving the recombinant TDP1 and a fluorescent reporter probe as previously described.
The recombinant TDP1 was purified to homogeneity by chromatography on Ni-chelating resin and phosphocellulose P11 as previously described, using plasmid pET 16B-TDP1, kindly provided by Dr. K.W. Caldecott (University of Sussex, United Kingdom). The TDP1 activity measurements were carried out as described. Briefly, TDP1-biosensor with fluorofore (FAM) at the 5′-end and a fluorescence quencher (BHQ1) at the 3′-end at a final concentration of 50 nM were incubated in a 200 μL volume that contained TDP1 buffer (50 mM Tris-HCl pH 8.0, 50 mM NaCl, and 7 mM β-mercaptoethanol) supplemented with purified 1.5 nM TDP1 and various concentrations of inhibitor. Fluorescence measurements (Ex485/Em520 nm) were carried out during the linear phase of the reaction (from 0 to 8 min for TDP1) every 55 sec. The reactions were incubated at a constant temperature of 26 °C in a POLARstar OPTIMA fluorimeter (BMG LABTECH, GmbH). The influence of compounds was evaluated by comparing the fluorescence increase rate in the presence of compounds with that of DMSO control wells. The data were imported into the MARS Data Analysis 2.0 program (BMG LABTECH), and the IC50 values (the concentration of a compound required to reduce the enzyme activity by 50%) were calculated.

T98G glioma cells = experiment: Cytotoxicity (MTT) alone and in combination with temozolomide; assay type: cell-based
Experimental: (§1) Since we used the T98G glioblastoma cell line for the first time for our experiments, we first attempted to perform the cytotoxicity study in a range of concentrations from 10 to 100 µM, as we did previously with the TDP1 inhibitory compounds when working with the other cell lines. However, the cytotoxicity at 50 and 100 µM of our compounds turned out to be rather high in the T98G cell line. We then measured the cytotoxicity of individual TDP1 inhibitors at 2.5, 5, 10, and 25 µM. The studied compounds were prepared as 50 mM stock solutions in DMSO and added to T98G glioma cells at 2.5 µM to 25 µM concentrations, either individually or in combination with 1000 or 2000 µM of TMZ. […] They were therefore discarded from the later cytotoxicity studies.
Individual TDP1 inhibitors were prepared as 50 mM stock solutions in DMSO and were added to the cells at 2.5, 5, 10, or 25 μM. Temozolomide was prepared as 200 mM stock solution in DMSO and was added at 1 mM or 2 mM concentrations, either alone or in combination with TDP1 inhibitors. T98G and SNB19 glioma cells were maintained in DMem/F12 medium supplemented with 10% foetal bovine serum, l-glutamine, and penicillin/streptomycin and were split at 10,000 cells/well into the 96-well plates for cytotoxicity experiments. The drugs or drug combinations were incubated with cells for 72 h, then the MTT reagent (3-(4,5-dimethylthiazol-2-yl)-2,5-diphenyltetrazolium bromide) was added for 4 h. The produced purple formazan dye reporting the activity of cellular oxireductases was dissolved overnight in 10% solution of acidified SDS and the absorbance was measured using a Tecan plate reader. Each concentration of individual substance or each drug combination was tested in triplicate. The data obtained were processed using MS Excel software and presented as histogram plots.

[3] = Solubility observations (stock solutions, solvents, cell growth medium); assay type: physicochemical; settings: light microscopy
Experimental: as §1

T1 sequence (Q9NUW8 whole entry): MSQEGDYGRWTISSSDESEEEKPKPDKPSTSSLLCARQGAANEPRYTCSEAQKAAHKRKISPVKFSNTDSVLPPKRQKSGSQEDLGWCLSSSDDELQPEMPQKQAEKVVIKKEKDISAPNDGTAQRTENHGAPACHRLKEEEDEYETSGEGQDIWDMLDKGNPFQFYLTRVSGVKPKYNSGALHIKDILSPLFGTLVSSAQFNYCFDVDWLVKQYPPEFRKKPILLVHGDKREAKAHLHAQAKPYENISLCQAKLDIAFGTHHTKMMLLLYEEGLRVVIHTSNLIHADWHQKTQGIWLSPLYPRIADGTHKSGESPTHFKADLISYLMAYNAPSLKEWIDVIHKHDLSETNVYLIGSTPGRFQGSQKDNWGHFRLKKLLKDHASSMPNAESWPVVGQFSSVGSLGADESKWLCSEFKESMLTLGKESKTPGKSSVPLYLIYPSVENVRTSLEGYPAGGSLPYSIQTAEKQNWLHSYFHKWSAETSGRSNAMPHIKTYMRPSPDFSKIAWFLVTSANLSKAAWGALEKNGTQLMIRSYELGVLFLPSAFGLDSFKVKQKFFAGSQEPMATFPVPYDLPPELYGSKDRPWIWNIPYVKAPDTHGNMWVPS

SMILES	IC50 (TDP1 [2]) [nM]	also measured
CC(=O)C1=C(O)C=C2Oc3c(-c4csc(N/N=C/CC(C)CCC=C(C)C)n4)c(O)c(C)c(O)c3[C@@]2(C)C1=O (stereo partly shown) [A]		IC50 (TDP1 [1]): 10.3 ± 0.4 nM
CC(C)=CCC/C(C)=C/COc1ccc2c(-c3ccc(F)cc3)cc(=O)oc2c1 [C]		IC50 (TDP1 [1]): 500 nM
CC(C)c1ccc2c(c1)CC[C@H]1[C@](C)(CNC(=O)NC34CC5CC(CC(C5)C3)C4)CCC[C@]21C [Compound 1, N-abieta-8,11,13-trien-18-yl-N’-1-adamantylurea]	190 ± 30	
CC(C)c1ccc2c(c1)CC[C@H]1[C@](C)(CNC(=S)NC3C4CC5CC(C4)CC3C5)CCC[C@]21C (stereo partly shown) [Compound 4, N-abieta-8,11,13-trien-18-yl-N’-2-adamantylthiourea]	670 ± 190	
CC(C)c1ccc2c(c1)CC[C@H]1[C@](C)(CNC(N)=O)CCC[C@]21C [Compound 5, N-abieta-8,11,13-trien-18-ylurea]	> 15000	IC50 (TDP1) (TDP1 [2]): no activity; also recorded: failed to inhibit TDP1
CC(C)c1ccc2c(c1)CC[C@H]1[C@](C)(CNC(=S)C34CC5CC(CC(C5)C3)C4)CCC[C@]21C [Compound 8, N-abieta-8,11,13-trien-18-yladamantan-1-carbothioamide]	2300 ± 800	behaviour of stock solution dissolved in cell growth medium [3]: formed visible micelles
CC(C)c1ccc2c(c1)CC[C@H]1[C@](C)(NC(=O)NC34CC5CC(CC(C5)C3)C4)CCC[C@]21C [Compound 9, N-1-adamantyl-N’-[(1R,4aS,10aR)-7-isopropyl-1,4a-dimethyl-1,2,3,4,4a,9,10,10a-octahydrophenanthren-1-yl]urea]	570 ± 160	
CC(C)C1=CC2=CC[C@H]3[C@](C)(NC(=O)NC4C5CC6CC(C5)CC4C6)CCC[C@]3(C)C2CC1 (stereo partly drawn) [Compound 12, N-2-adamantyl-N’-[(1R,4aR,10aR)-7-isopropyl-1,4a-dimethyl-1,2,3,4,4a,4b,5,6,10,10a-decahydrophenanthren-1-yl]urea]	1400 ± 300	
CC(C)CCCC(C)CCOC(=O)C12CC3CC(CC(C3)C1)C2 (stereo not shown) [E]		IC50 (TDP1 [1]): 920 nM
Cn1nnc2c(C(N)=O)ncn2c1=O [TMZ, temozolomide]		cells surviving the treatment (T98G glioma cells; TMZ alone 1000 µM, 72 h, MTT): ~ 95%; inhibition of cell viability (T98G glioma cells; TMZ alone 2000 µM, 72 h, MTT): ~ 40%

Further lines, with some results ahead:

IC50 (TDP1 [2]) [nM]	SMILES	also measured
800 ± 200	CC(C)c1ccc2c(c1)CC[C@H]1[C@](C)(CNC(=O)NC3C4CC5CC(C4)CC3C5)CCC[C@]21C (stereo partly shown) [Compound 2, N-abieta-8,11,13-trien-18-yl-N’-2-adamantylurea]	sensitization of glioma T98G cells to TMZ (T98G glioma cells; combination with TMZ): most effective; melting point: 150 °C
1500 ± 500	CC(C)c1ccc2c(c1)CC[C@H]1[C@](C)(CNC(=S)NC34CC5CC(CC(C5)C3)C4)CCC[C@]21C [Compound 3, N-abieta-8,11,13-trien-18-yl-N’-1-adamantylthiourea]	
940 ± 180	CC(C)c1ccc2c(c1)CC[C@H]1[C@](C)(CNC(=O)C34CC5CC(CC(C5)C3)C4)CCC[C@]21C [Compound 6, N-abieta-8,11,13-trien-18-yladamantan-1-carboxamide]	
1800 ± 400	CC(C)c1ccc2c(c1)CC[C@H]1[C@](C)(CNC(=O)C3C4CC5CC(C4)CC3C5)CCC[C@]21C (stereo partly shown) [Compound 7, N-abieta-8,11,13-trien-18-yladamantan-2-carboxamide]	behaviour of stock solution dissolved in cell growth medium [3]: formed visible micelles
590 ± 150	CC(C)c1ccc2c(c1)CC[C@H]1[C@](C)(NC(=O)NC3C4CC5CC(C4)CC3C5)CCC[C@]21C (stereo partly drawn) [Compound 10, N-2-adamantyl-N’-[(1R,4aS,10aR)-7-isopropyl-1,4a-dimethyl-1,2,3,4,4a,9,10,10a-octahydrophenanthren-1-yl]urea]	
1700 ± 600	CC(C)C1=CC2=CC[C@H]3[C@](C)(NC(=O)NC45CC6CC(CC(C6)C4)C5)CCC[C@]3(C)C2CC1 (stereo partly drawn) [Compound 11, N-1-adamantyl-N’-[(1R,4aR,10aR)-7-isopropyl-1,4a-dimethyl-1,2,3,4,4a,4b,5,6,10,10a-decahydrophenanthren-1-yl]urea]	

— publication PMC8147275, “Design, Synthesis, and Molecular Docking Study of New Tyrosyl-DNA Phosphodiesterase 1 (TDP1) Inhibitors Combining Resin Acids and Adamantane Moieties” (Pharmaceuticals, 2021)
